Measured values from patent US20050079613A1, “Downregulation of cell surface glycoproteins by a family of human ubiquitin ligases” (Oregon Health & Science University, priority 2002, published 2005).

Tested on: HLA-A2.1
Test: Pulse-chase of HLA-A2.1 maturation and turnover in transfected HeLa cells
Assay type: cell-based, human
Conditions: for effect of inhibitor on degradation of HLA-A2.1 heavy chains: MARCH-IV and HLA-A2.1 co-transfected cells, concanamycin A 50 nM, lactacystin 20 μM
Protocol: Metabolic labeling, immunoprecipitation and Western blotting. HeLa cells were grown to 80% confluency in 100 mm tissue culture dishes and transfected as above. Cells were incubated in serum-free and methionine-free medium for 30 minutes, and metabolically labeled with ^35S-cysteine/^35S-methionine (250 μCi, Amersham) for the indicated time. After labeling, cells were washed twice with PBS and either lysed immediately in PBS containing 1% Triton X-100 and protease inhibitors (Roche, Indianapolis, Ind.), or the label was chased with excess (2 mM) unlabeled cysteine and methionine in the presence or absence of specific inhibitors for the indicated time. The cell lysates were precleared with protein A/G agarose beads and incubated with 3 μg of antibody for one hour and followed by two hours incubation with protein A/G beads. Immunoprecipated proteins were washed five times with 0.1% Triton X-100 in PBS. All samples were boiled in SDS buffer and analyzed by SDS-PAGE gel electrophoresis. Where indicated, samples were treated with Endoglycosidase H (Roche) according to manufacturer's instructions. Briefly, samples were initially denatured at 100° C. in 40 μl of 0.3% SDS, 150 mM 2-mercaptoethanol, 50 mM sodium acetate, pH 5.5 and incubated with 4 milli-Units of Endo H overnight at 37° C. All samples were boiled in SDS buffer and analyzed by SDS-PAGE gel electrophoresis. Gels were fixed, dried and exposed to Kodak BioMax MR film. Western blotting was accomplished using the WesternBreeze Chemiluminescent Detection System (Invitrogen) following Semi-dry transfer to PVDF membranes (Millipore, Bedford, Mass.).
To determine the ultimate fate of the MHC I molecules in the presence of MARCH-IV, the maturation and turnover of co-transfected HLA-A2.1 in pulse-chase experiments (FIG. 12B) was followed. In the absence of MARCH-IV, HLA-A2.1 molecules acquired Endo H resistance after 1 hour of chase indicating exit from the ER. […]

Structure (SMILES): C/C=C/[C@H]1O[C@@](O)([C@@H](C)[C@H](O)[C@H](C)[C@H]2OC(=O)/C(OC)=C/C(C)=C/[C@@H](C)[C@@H](O)[C@@H](CC)[C@@H](O)[C@H](C)C/C(C)=C/C=C/[C@@H]2OC)C[C@@H](O[C@H]2C[C@@H](O)[C@H](OC(N)=O)[C@@H](C)O2)[C@@H]1C [concanamycin A]
- effect of inhibitor on degradation of HLA-A2.1 heavy chains: delayed the degradation of HLA-A2.1
- effect of inhibitor on HLA-A2.1 in the absence of MARCH-IV (cells without MARCH-IV): no effect

Structure (SMILES): CC(=O)N[C@@H](CSC(=O)[C@]1([C@@H](O)C(C)C)NC(=O)[C@H](C)[C@@H]1O)C(=O)O [lactacystin]
- effect of inhibitor on degradation of HLA-A2.1 heavy chains: did not increase recovery of HLA-A2.1 heavy chains
